Data reported in patent publication US7118895B2, “Process for producing aglycon by using diglycosidase and flavor-improved food containing the aglycon and converting agent to be used in the process” (Amano Enzyme Inc., priority 2000, dated 2006).

Tested on: Crude diglycosidase
Test: Examination of pH in the conversion into isoflavone aglycons by diglycosidase using soybean materials
Format: biochemical, Penicillium multicolor IAM7153
Settings: for Decomposition efficiency of glycitin family in roasted soy flour / Decomposition efficiency of glycitin family in soymilk: 55° C.
Outline: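 HPLC readout: isoflavone glycosides vs aglycons. Substrates: 50 mg soy material (roasted flour, soymilk, defatted bean, concentrated protein), pH 2–11 (HCl/NaOH). Crude diglycosidase solution 1.88 AU/mL, matched pH; 55° C; quenched with ethanol at 0/1/3/6 h; centrifuged 15,000 rpm, 4° C, 10 min.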

[1] = pH6.6, heat treatment of enzyme: no, reaction time 0 h
[2] = pH6.6, heat treatment of enzyme: no, reaction time 1 h
[3] = pH6.6, heat treatment of enzyme: no, reaction time 3 h
[4] = pH6.6, heat treatment of enzyme: no, reaction time 6 h
[5] = pH6.6, heat treatment of enzyme: yes, reaction time 6 h

COc1cc2c(=O)c(-c3ccc(O)cc3)coc2cc1O[C@@H]1O[C@H](COC(=O)CC(=O)O)[C@@H](O)[C@H](O)[C@H]1O [malonylglycitin, 6″-O-malonylglycitin]
Decomposition efficiency of glycitin family in concentrated soybean protein (pH1.6, heat treatment of enzyme: no, reaction time 0 h): 0.4% | Decomposition efficiency of glycitin family in concentrated soybean protein (pH1.6, heat treatment of enzyme: no, reaction time 1 h): 0.4% | Decomposition efficiency of glycitin family in concentrated soybean protein (pH1.6, heat treatment of enzyme: no, reaction time 3 h): 0.4% | Decomposition efficiency of glycitin family in concentrated soybean protein (pH1.6, heat treatment of enzyme: no, reaction time 6 h): 0.4% | Decomposition efficiency of glycitin family in concentrated soybean protein (pH1.6, heat treatment of enzyme: yes, reaction time 6 h): 0.4% | Decomposition efficiency of glycitin family in roasted soy flour (pH2, heat treatment of enzyme no, reaction time 0 h): not detected | Decomposition efficiency of glycitin family in roasted soy flour (pH2, heat treatment of enzyme no, reaction time 1 h): not detected | Decomposition efficiency of glycitin family in roasted soy flour (pH2, heat treatment of enzyme no, reaction time 3 h): not detected | Decomposition efficiency of glycitin family in roasted soy flour (pH2, heat treatment of enzyme no, reaction time 6 h): not detected | Decomposition efficiency of glycitin family in roasted soy flour (pH2, heat treatment of enzyme yes, reaction time 6 h): not detected | Decomposition efficiency of glycitin family in soymilk (pH2.3, heat treatment of enzyme no, reaction time 0 h): 42.6 | Decomposition efficiency of glycitin family in soymilk (pH2.3, heat treatment of enzyme no, reaction time 1 h): 51.3 | Decomposition efficiency of glycitin family in soymilk (pH2.3, heat treatment of enzyme no, reaction time 3 h): 47.7 | Decomposition efficiency of glycitin family in soymilk (pH2.3, heat treatment of enzyme no, reaction time 6 h): 46.5 | Decomposition efficiency of glycitin family in soymilk (pH2.3, heat treatment of enzyme yes, reaction time 6 h): 41.3 | Decomposition efficiency of glycitin family in defatted soybean (pH2.6, heat treatment of enzyme: no, reaction time 0 h): 100.0% | Decomposition efficiency of glycitin family in defatted soybean (pH2.6, heat treatment of enzyme: no, reaction time 1 h): 100.0% | Decomposition efficiency of glycitin family in defatted soybean (pH2.6, heat treatment of enzyme: no, reaction time 3 h): 100.0% | Decomposition efficiency of glycitin family in defatted soybean (pH2.6, heat treatment of enzyme: no, reaction time 6 h): 100.0% | Decomposition efficiency of glycitin family in defatted soybean (pH2.6, heat treatment of enzyme: yes, reaction time 6 h): 100.0% | Decomposition efficiency of glycitin family in concentrated soybean protein (pH2.7, heat treatment of enzyme: no, reaction time 0 h): 0.4% | Decomposition efficiency of glycitin family in concentrated soybean protein (pH2.7, heat treatment of enzyme: no, reaction time 1 h): 0.5% | Decomposition efficiency of glycitin family in concentrated soybean protein (pH2.7, heat treatment of enzyme: no, reaction time 3 h): 0.5% | Decomposition efficiency of glycitin family in concentrated soybean protein (pH2.7, heat treatment of enzyme: no, reaction time 6 h): 0.5% | Decomposition efficiency of glycitin family in concentrated soybean protein (pH2.7, heat treatment of enzyme: yes, reaction time 6 h): 0.4% | Decomposition efficiency of glycitin family in roasted soy flour (pH3, heat treatment of enzyme no, reaction time 0 h): not detected | Decomposition efficiency of glycitin family in roasted soy flour (pH3, heat treatment of enzyme no, reaction time 1 h): not detected | Decomposition efficiency of glycitin family in roasted soy flour (pH3, heat treatment of enzyme no, reaction time 3 h): not detected | Decomposition efficiency of glycitin family in roasted soy flour (pH3, heat treatment of enzyme no, reaction time 6 h): not detected | Decomposition efficiency of glycitin family in roasted soy flour (pH3, heat treatment of enzyme yes, reaction time 6 h): not detected | Decomposition efficiency of glycitin family in defatted soybean (pH3.4, heat treatment of enzyme: no, reaction time 0 h): 100.0% | Decomposition efficiency of glycitin family in defatted soybean (pH3.4, heat treatment of enzyme: no, reaction time 1 h): 100.0% | Decomposition efficiency of glycitin family in defatted soybean (pH3.4, heat treatment of enzyme: no, reaction time 3 h): 100.0% | Decomposition efficiency of glycitin family in defatted soybean (pH3.4, heat treatment of enzyme: no, reaction time 6 h): 100.0% | Decomposition efficiency of glycitin family in defatted soybean (pH3.4, heat treatment of enzyme: yes, reaction time 6 h): 100.0% | Decomposition efficiency of glycitin family in soymilk (pH3.5, heat treatment of enzyme no, reaction time 0 h): 42.6 | Decomposition efficiency of glycitin family in soymilk (pH3.5, heat treatment of enzyme no, reaction time 1 h): 21.9 | Decomposition efficiency of glycitin family in soymilk (pH3.5, heat treatment of enzyme no, reaction time 3 h): not detected | Decomposition efficiency of glycitin family in soymilk (pH3.5, heat treatment of enzyme no, reaction time 6 h): not detected | Decomposition efficiency of glycitin family in soymilk (pH3.5, heat treatment of enzyme yes, reaction time 6 h): 38.2 | Decomposition efficiency of glycitin family in concentrated soybean protein (pH3.7, heat treatment of enzyme: no, reaction time 0 h): 0.4% | Decomposition efficiency of glycitin family in concentrated soybean protein (pH3.7, heat treatment of enzyme: no, reaction time 1 h): 0.5% | Decomposition efficiency of glycitin family in concentrated soybean protein (pH3.7, heat treatment of enzyme: no, reaction time 3 h): 0.4% | Decomposition efficiency of glycitin family in concentrated soybean protein (pH3.7, heat treatment of enzyme: no, reaction time 6 h): 0.4% | Decomposition efficiency of glycitin family in concentrated soybean protein (pH3.7, heat treatment of enzyme: yes, reaction time 6 h): 0.4% | Decomposition efficiency of glycitin family in roasted soy flour (pH4, heat treatment of enzyme no, reaction time 0 h): not detected | Decomposition efficiency of glycitin family in roasted soy flour (pH4, heat treatment of enzyme no, reaction time 1 h): not detected | Decomposition efficiency of glycitin family in roasted soy flour (pH4, heat treatment of enzyme no, reaction time 3 h): not detected | Decomposition efficiency of glycitin family in roasted soy flour (pH4, heat treatment of enzyme no, reaction time 6 h): not detected | Decomposition efficiency of glycitin family in roasted soy flour (pH4, heat treatment of enzyme yes, reaction time 6 h): not detected | Decomposition efficiency of glycitin family in soymilk (pH4.8, heat treatment of enzyme no, reaction time 0 h): 43.2 | Decomposition efficiency of glycitin family in soymilk (pH4.8, heat treatment of enzyme no, reaction time 1 h): 37.0 | Decomposition efficiency of glycitin family in soymilk (pH4.8, heat treatment of enzyme no, reaction time 3 h): 21.1 | Decomposition efficiency of glycitin family in soymilk (pH4.8, heat treatment of enzyme no, reaction time 6 h): 8.3 | Decomposition efficiency of glycitin family in soymilk (pH4.8, heat treatment of enzyme yes, reaction time 6 h): 39.2 | Decomposition efficiency of glycitin family in defatted soybean (pH4.8, heat treatment of enzyme: no, reaction time 0 h): 64.0% | Decomposition efficiency of glycitin family in defatted soybean (pH4.8, heat treatment of enzyme: no, reaction time 1 h): 40.1% | Decomposition efficiency of glycitin family in defatted soybean (pH4.8, heat treatment of enzyme: no, reaction time 3 h): 37.5% | Decomposition efficiency of glycitin family in defatted soybean (pH4.8, heat treatment of enzyme: no, reaction time 6 h): 31.9% | Decomposition efficiency of glycitin family in defatted soybean (pH4.8, heat treatment of enzyme: yes, reaction time 6 h): 56.2% | Decomposition efficiency of glycitin family in roasted soy flour (pH5, heat treatment of enzyme no, reaction time 0 h): not detected | Decomposition efficiency of glycitin family in roasted soy flour (pH5, heat treatment of enzyme no, reaction time 1 h): not detected | Decomposition efficiency of glycitin family in roasted soy flour (pH5, heat treatment of enzyme no, reaction time 3 h): not detected | Decomposition efficiency of glycitin family in roasted soy flour (pH5, heat treatment of enzyme no, reaction time 6 h): not detected | Decomposition efficiency of glycitin family in roasted soy flour (pH5, heat treatment of enzyme yes, reaction time 6 h): not detected | Decomposition efficiency of glycitin family in concentrated soybean protein (pH5.1, heat treatment of enzyme: no, reaction time 0 h): 0.4% | Decomposition efficiency of glycitin family in concentrated soybean protein (pH5.1, heat treatment of enzyme: no, reaction time 1 h): 0.6% | Decomposition efficiency of glycitin family in concentrated soybean protein (pH5.1, heat treatment of enzyme: no, reaction time 3 h): 0.6% | Decomposition efficiency of glycitin family in concentrated soybean protein (pH5.1, heat treatment of enzyme: no, reaction time 6 h): 0.6% | Decomposition efficiency of glycitin family in concentrated soybean protein (pH5.1, heat treatment of enzyme: yes, reaction time 6 h): 0.4% | Decomposition efficiency of glycitin family in defatted soybean (pH5.4, heat treatment of enzyme: no, reaction time 0 h): 64.0% | Decomposition efficiency of glycitin family in defatted soybean (pH5.4, heat treatment of enzyme: no, reaction time 1 h): 45.1% | Decomposition efficiency of glycitin family in defatted soybean (pH5.4, heat treatment of enzyme: no, reaction time 3 h): 100.0% | Decomposition efficiency of glycitin family in defatted soybean (pH5.4, heat treatment of enzyme: no, reaction time 6 h): 32.3% | Decomposition efficiency of glycitin family in defatted soybean (pH5.4, heat treatment of enzyme: yes, reaction time 6 h): 39.3% | Decomposition efficiency of glycitin family in soymilk (pH6.2, heat treatment of enzyme no, reaction time 0 h): 43.2 | Decomposition efficiency of glycitin family in soymilk (pH6.2, heat treatment of enzyme no, reaction time 1 h): 46.4 | Decomposition efficiency of glycitin family in soymilk (pH6.2, heat treatment of enzyme no, reaction time 3 h): 34.5 | Decomposition efficiency of glycitin family in soymilk (pH6.2, heat treatment of enzyme no, reaction time 6 h): 29.6 | Decomposition efficiency of glycitin family in soymilk (pH6.2, heat treatment of enzyme yes, reaction time 6 h): 37.6 | Decomposition efficiency of glycitin family in roasted soy flour (pH6.5, heat treatment of enzyme no, reaction time 0 h): not detected | Decomposition efficiency of glycitin family in roasted soy flour (pH6.5, heat treatment of enzyme no, reaction time 1 h): not detected | Decomposition efficiency of glycitin family in roasted soy flour (pH6.5, heat treatment of enzyme no, reaction time 3 h): not detected | Decomposition efficiency of glycitin family in roasted soy flour (pH6.5, heat treatment of enzyme no, reaction time 6 h): not detected | Decomposition efficiency of glycitin family in roasted soy flour (pH6.5, heat treatment of enzyme yes, reaction time 6 h): not detected | Decomposition efficiency of glycitin family in concentrated soybean protein [1]: 0.4% | Decomposition efficiency of glycitin family in defatted soybean [1]: 39.6% | Decomposition efficiency of glycitin family in concentrated soybean protein [2]: 0.4% | Decomposition efficiency of glycitin family in defatted soybean [2]: 52.9% | Decomposition efficiency of glycitin family in concentrated soybean protein [3]: 0.4% | Decomposition efficiency of glycitin family in defatted soybean [3]: 53.6% | Decomposition efficiency of glycitin family in concentrated soybean protein [4]: 0.4% | Decomposition efficiency of glycitin family in defatted soybean [4]: 58.1% | Decomposition efficiency of glycitin family in concentrated soybean protein [5]: 0.4% | Decomposition efficiency of glycitin family in defatted soybean [5]: 50.3% | Decomposition efficiency of glycitin family in soymilk (pH7.2, heat treatment of enzyme no, reaction time 0 h): 43.9 | Decomposition efficiency of glycitin family in soymilk (pH7.2, heat treatment of enzyme no, reaction time 1 h): 48.8 | Decomposition efficiency of glycitin family in soymilk (pH7.2, heat treatment of enzyme no, reaction time 3 h): 46.2 | Decomposition efficiency of glycitin family in soymilk (pH7.2, heat treatment of enzyme no, reaction time 6 h): 41.6 | Decomposition efficiency of glycitin family in soymilk (pH7.2, heat treatment of enzyme yes, reaction time 6 h): 37.5 | Decomposition efficiency of glycitin family in defatted soybean (pH7.8, heat treatment of enzyme: no, reaction time 0 h): 66.8% | Decomposition efficiency of glycitin family in defatted soybean (pH7.8, heat treatment of enzyme: no, reaction time 1 h): 57.5% | Decomposition efficiency of glycitin family in defatted soybean (pH7.8, heat treatment of enzyme: no, reaction time 3 h): 53.2% | Decomposition efficiency of glycitin family in defatted soybean (pH7.8, heat treatment of enzyme: no, reaction time 6 h): 49.1% | Decomposition efficiency of glycitin family in defatted soybean (pH7.8, heat treatment of enzyme: yes, reaction time 6 h): 55.8% | Decomposition efficiency of glycitin family in roasted soy flour (pH8.5, heat treatment of enzyme no, reaction time 0 h): not detected | Decomposition efficiency of glycitin family in roasted soy flour (pH8.5, heat treatment of enzyme no, reaction time 1 h): not detected | Decomposition efficiency of glycitin family in roasted soy flour (pH8.5, heat treatment of enzyme no, reaction time 3 h): not detected | Decomposition efficiency of glycitin family in roasted soy flour (pH8.5, heat treatment of enzyme no, reaction time 6 h): not detected | Decomposition efficiency of glycitin family in roasted soy flour (pH8.5, heat treatment of enzyme yes, reaction time 6 h): not detected | Decomposition efficiency of glycitin family in concentrated soybean protein (pH8.6, heat treatment of enzyme: no, reaction time 0 h): 0.4% | Decomposition efficiency of glycitin family in concentrated soybean protein (pH8.6, heat treatment of enzyme: no, reaction time 1 h): 0.4% | Decomposition efficiency of glycitin family in concentrated soybean protein (pH8.6, heat treatment of enzyme: no, reaction time 3 h): 0.4% | Decomposition efficiency of glycitin family in concentrated soybean protein (pH8.6, heat treatment of enzyme: no, reaction time 6 h): 0.4% | Decomposition efficiency of glycitin family in concentrated soybean protein (pH8.6, heat treatment of enzyme: yes, reaction time 6 h): 0.3% | Decomposition efficiency of glycitin family in soymilk (pH11.6, heat treatment of enzyme no, reaction time 0 h): 39.4 | Decomposition efficiency of glycitin family in soymilk (pH11.6, heat treatment of enzyme no, reaction time 1 h): 50.4 | Decomposition efficiency of glycitin family in soymilk (pH11.6, heat treatment of enzyme no, reaction time 3 h): 46.5 | Decomposition efficiency of glycitin family in soymilk (pH11.6, heat treatment of enzyme no, reaction time 6 h): 44.0 | Decomposition efficiency of glycitin family in soymilk (pH11.6, heat treatment of enzyme yes, reaction time 6 h): 34.4
